Assays:
Type in all cases: in vivo
Diabrotica balteata = Diabrotica balteata (corn root worm), sprayed maize sprouts; details: 96 h, application rate 200 ppm, L2 larvae, 4 days after infestation, read-out: effect in at least one of the two categories (mortality or growth inhibition)
Method: Maize sprouts placed onto an agar layer in 24-well microtiter plates were treated with aqueous test solutions prepared from 10'000 ppm DMSO stock solutions by spraying. After drying, the plates were infested with L2 larvae (6 to 10 per well). The samples were assessed for mortality and growth inhibition in comparison to untreated samples 4 days after infestation.
(§1) The following compounds gave an effect of at least 80% in at least one of the two categories (mortality or growth inhibition) at an application rate of 200 ppm: […]

Thrips tabaci = Thrips tabaci (onion thrips): feeding/contact activity; details: 144 h, application rate 200 ppm, Thrips population of mixed ages, 6 days after infestation, read-out: mortality
Method: Sunflower leaf discs were placed on agar in 24-well microtiter plates and sprayed with aqueous test solutions prepared from 10'000 ppm DMSO stock solutions. After drying the leaf discs were infested with a Thrips population of mixed ages. The samples were assessed for mortality 6 days after infestation.

Plutella xylostella = Plutella xylostella (diamond back moth), artificial diet; details: 120 h, application rate 200 ppm, L2 larvae, 5 days after infestation, read-out: effect in at least one of the two categories (mortality or growth inhibition)
Method: 24-well microtiter plates with artificial diet were treated with aqueous test solutions prepared from 10'000 ppm DMSO stock solutions by pipetting. After drying, the plates were infested with L2 larvae (10 to 15 per well). The samples were assessed for mortality and growth inhibition in comparison to untreated samples 5 days after infestation.
as §1

Euschistus heros = Euschistus heros (neotropical brown stink bug), sprayed soybean leaves; details: 120 h, application rate 200 ppm, N2 nymphs, 5 days after infestation, read-out: effect in at least one of the two categories (mortality or growth inhibition)
Method: Soybean leaves on agar in 24-well microtiter plates were sprayed with aqueous test solutions prepared from 10'000 ppm DMSO stock solutions. After drying the leaves were infested with N2 nymphs. The samples were assessed for mortality and growth inhibition in comparison to untreated samples 5 days after infestation.
as §1

Spodoptera littoralis = Spodoptera littoralis (Egyptian cotton leaf worm), sprayed cotton leaf discs; details: foliar, 72 h, application rate 200 ppm, L1 larvae, 3 days after infestation, read-out: control (mortality, anti-feeding effect, growth inhibition)
Method: Cotton leaf discs were placed onto agar in 24-well microtiter plates and sprayed with aqueous test solutions prepared from 10'000 ppm DMSO stock solutions. After drying the leaf discs were infested with five L1 larvae. The samples were assessed for mortality, anti-feeding effect, and growth inhibition in comparison to untreated samples 3 days after infestation. Control of Spodoptera littoralis by a test sample is given when at least one of the categories mortality, anti-feedant effect, and growth inhibition is higher than the untreated sample.

Tetranychus urticae = Tetranychus urticae (two-spotted spider mite): feeding/contact activity; details: 192 h, application rate 200 ppm, mixed population (mobile stages), 8 days after infestation, read-out: mortality
Method: Bean leaf discs on agar in 24-well microtiter plates were sprayed with aqueous test solutions prepared from 10'000 ppm DMSO stock solutions. After drying the leaf discs were infested with a mite population of mixed ages. The samples were assessed for mortality on mixed population (mobile stages) 8 days after infestation.

COC(=O)CN(C)S(=O)(=O)N1CC(NC(=O)c2ccc(C3=NO[C@@](c4cc(Cl)c(Cl)c(Cl)c4)(C(F)(F)F)C3)cc2C)CO1 (stereo partly drawn) [Compound A88, methyl 2-[methyl-[4-[[2-methyl-4-[(5S)-5-(3,4,5-trichlorophenyl)-5-(trifluoromethyl)-4H-isoxazol-3-yl]benzoyl]amino]isoxazolidin-2-yl]sulfonyl-amino]acetate]
≥ 80%: percent effect (mortality or growth inhibition) at 200 ppm (Diabrotica balteata) | mortality at 200 ppm (Thrips tabaci) | percent effect (mortality or growth inhibition) at 200 ppm (Plutella xylostella) | percent effect (mortality or growth inhibition) at 200 ppm (Euschistus heros) | mortality at 200 ppm (Spodoptera littoralis) | mortality at 200 ppm (Tetranychus urticae)

Cc1cc(C2=NO[C@@](c3cc(Cl)c(Cl)c(Cl)c3)(C(F)(F)F)C2)ccc1C(=O)N[C@H]1CON(S(=O)(=O)CC(F)(F)F)C1 [Compound A221, 2-methyl-4-[(5S)-5-(3,4,5-trichlorophenyl)-5-(trifluoromethyl)-4H-1,2-oxazol-3-yl]-N-[(4R)-2-(2,2,2-trifluoroethylsulfonyl)-1,2-oxazolidin-4-yl]benzamide]
≥ 80%: percent effect (mortality or growth inhibition) at 200 ppm (Diabrotica balteata) | mortality at 200 ppm (Thrips tabaci) | percent effect (mortality or growth inhibition) at 200 ppm (Plutella xylostella) | percent effect (mortality or growth inhibition) at 200 ppm (Euschistus heros) | mortality at 200 ppm (Spodoptera littoralis) | mortality at 200 ppm (Tetranychus urticae)

CN(C)S(=O)(=O)N1C[C@@H](NC(=O)c2ccc(C3=NO[C@@](c4cc(Cl)cc(Cl)c4)(C(F)(F)F)C3)cc2Cl)CO1 [Compound A110, 2-chloro-4-[(5S)-5-(3,5-dichlorophenyl)-5-(trifluoromethyl)-4H-isoxazol-3-yl]-N-[(4R)-2-(dimethylsulfamoyl)isoxazolidin-4-yl]benzamide]
≥ 80%: percent effect (mortality or growth inhibition) at 200 ppm (Diabrotica balteata) | mortality at 200 ppm (Thrips tabaci) | percent effect (mortality or growth inhibition) at 200 ppm (Plutella xylostella) | percent effect (mortality or growth inhibition) at 200 ppm (Euschistus heros) | mortality at 200 ppm (Spodoptera littoralis) | mortality at 200 ppm (Tetranychus urticae)

Cc1cc(C2=NO[C@](c3cc(Cl)c(F)c(Cl)c3)(C(F)(F)F)C2)ccc1C(=O)N[C@H]1CON(S(=O)(=O)CC#N)C1 [Compound A163]
≥ 80%: percent effect (mortality or growth inhibition) at 200 ppm (Diabrotica balteata) | mortality at 200 ppm (Thrips tabaci) | percent effect (mortality or growth inhibition) at 200 ppm (Plutella xylostella) | percent effect (mortality or growth inhibition) at 200 ppm (Euschistus heros) | mortality at 200 ppm (Spodoptera littoralis) | mortality at 200 ppm (Tetranychus urticae)

Cc1cc(C2=NO[C@](c3cc(Cl)cc(Cl)c3)(C(F)(F)F)C2)ccc1C(=O)N[C@H]1CON(S(=O)(=O)NC2(C#N)CC2)C1 [Compound A167]
≥ 80%: percent effect (mortality or growth inhibition) at 200 ppm (Diabrotica balteata) | mortality at 200 ppm (Thrips tabaci) | percent effect (mortality or growth inhibition) at 200 ppm (Plutella xylostella) | percent effect (mortality or growth inhibition) at 200 ppm (Euschistus heros) | mortality at 200 ppm (Spodoptera littoralis) | mortality at 200 ppm (Tetranychus urticae)

Cc1cc(C2=NO[C@](c3cc(Cl)cc(Cl)c3)(C(F)(F)F)C2)ccc1C(=O)N[C@H]1CON(S(=O)(=O)CC#N)C1 [Compound A165, N-[(4R)-2-(cyanomethylsulfonyl)-1,2-oxazolidin-4-yl]-4-[(5R)-5-(3,5-dichlorophenyl)-5-(trifluoromethyl)-4H-1,2-oxazol-3-yl]-2-methylbenzamide]
≥ 80%: percent effect (mortality or growth inhibition) at 200 ppm (Diabrotica balteata) | mortality at 200 ppm (Thrips tabaci) | percent effect (mortality or growth inhibition) at 200 ppm (Plutella xylostella) | percent effect (mortality or growth inhibition) at 200 ppm (Euschistus heros) | mortality at 200 ppm (Spodoptera littoralis) | mortality at 200 ppm (Tetranychus urticae)

Cc1cc(C2=NO[C@@](c3cc(Cl)c(F)c(Cl)c3)(C(F)(F)F)C2)ccc1C(=O)NC1CON(S(=O)(=O)c2cccs2)C1 (stereo partly drawn) [Compound A9]
≥ 80%: percent effect (mortality or growth inhibition) at 200 ppm (Diabrotica balteata) | mortality at 200 ppm (Thrips tabaci) | percent effect (mortality or growth inhibition) at 200 ppm (Plutella xylostella) | percent effect (mortality or growth inhibition) at 200 ppm (Euschistus heros) | mortality at 200 ppm (Spodoptera littoralis) | mortality at 200 ppm (Tetranychus urticae)

Cc1cc(C2=NO[C@@](c3cc(Cl)cc(Cl)c3)(C(F)(F)F)C2)ccc1C(=O)N[C@@H]1CON(S(=O)(=O)CC(F)(F)F)C1 [Compound A195, 4-[(5S)-5-(3,5-dichlorophenyl)-5-(trifluoromethyl)-4H-1,2-oxazol-3-yl]-2-methyl-N-[(4S)-2-(2,2,2-trifluoroethylsulfonyl)-1,2-oxazolidin-4-yl]benzamide]
≥ 80%: percent effect (mortality or growth inhibition) at 200 ppm (Diabrotica balteata) | mortality at 200 ppm (Thrips tabaci) | percent effect (mortality or growth inhibition) at 200 ppm (Plutella xylostella) | percent effect (mortality or growth inhibition) at 200 ppm (Euschistus heros) | mortality at 200 ppm (Spodoptera littoralis) | mortality at 200 ppm (Tetranychus urticae)

Cc1cc(C2=NO[C@@](c3cc(Cl)c(F)c(Cl)c3)(C(F)(F)F)C2)ccc1C(=O)NC1CON(S(=O)(=O)N(C)S(C)(=O)=O)C1 (stereo partly drawn) [Compound A92]
≥ 80%: percent effect (mortality or growth inhibition) at 200 ppm (Diabrotica balteata) | mortality at 200 ppm (Thrips tabaci) | percent effect (mortality or growth inhibition) at 200 ppm (Plutella xylostella) | percent effect (mortality or growth inhibition) at 200 ppm (Euschistus heros) | mortality at 200 ppm (Spodoptera littoralis) | mortality at 200 ppm (Tetranychus urticae)

CS(=O)(=O)N1CC(NC(=O)c2ccc(C3=NOC(c4cc(Cl)cc(Cl)c4)(C(F)(F)F)C3)cc2C(F)(F)F)CO1 (stereo not drawn) [Compound A58]
≥ 80%: percent effect (mortality or growth inhibition) at 200 ppm (Diabrotica balteata) | mortality at 200 ppm (Thrips tabaci) | percent effect (mortality or growth inhibition) at 200 ppm (Plutella xylostella) | percent effect (mortality or growth inhibition) at 200 ppm (Euschistus heros) | mortality at 200 ppm (Spodoptera littoralis) | mortality at 200 ppm (Tetranychus urticae)

COC(=O)CS(=O)(=O)N1C[C@H](NC(=O)c2ccc(C3=NO[C@@](c4cc(Cl)c(F)c(Cl)c4)(C(F)(F)F)C3)cc2C)CO1 [Compound A190, methyl 2-[[(4S)-4-[[4-[(5S)-5-(3,5-dichloro-4-fluorophenyl)-5-(trifluoromethyl)-4H-1,2-oxazol-3-yl]-2-methylbenzoyl]amino]-1,2-oxazolidin-2-yl]sulfonyl]acetate]
≥ 80%: percent effect (mortality or growth inhibition) at 200 ppm (Diabrotica balteata) | mortality at 200 ppm (Thrips tabaci) | percent effect (mortality or growth inhibition) at 200 ppm (Plutella xylostella) | percent effect (mortality or growth inhibition) at 200 ppm (Euschistus heros) | mortality at 200 ppm (Spodoptera littoralis) | mortality at 200 ppm (Tetranychus urticae)

CCOC(=O)CN(C)S(=O)(=O)N1CC(NC(=O)c2ccc(C3=NO[C@@](c4cc(Cl)c(Cl)c(Cl)c4)(C(F)(F)F)C3)cc2C)CO1 (stereo partly drawn) [Compound A89, ethyl 2-[methyl-[4-[[2-methyl-4-[(5S)-5-(3,4,5-trichlorophenyl)-5-(trifluoromethyl)-4H-isoxazol-3-yl]benzoyl]amino]isoxazolidin-2-yl]sulfonyl-amino]acetate]
≥ 80%: percent effect (mortality or growth inhibition) at 200 ppm (Diabrotica balteata) | mortality at 200 ppm (Thrips tabaci) | percent effect (mortality or growth inhibition) at 200 ppm (Plutella xylostella) | percent effect (mortality or growth inhibition) at 200 ppm (Euschistus heros) | mortality at 200 ppm (Spodoptera littoralis) | mortality at 200 ppm (Tetranychus urticae)

Reference: patent US10588317B2, “Isoxazoline-substituted benzamides and analogues as insecticides” (priority 2015, dated 2020)
